Assay results reported in PMC9162272 (Journal of Cardiovascular Pharmacology, 2022).
Where two headings read alike, the source gives them in different places.

Target: PDE-III (Homo sapiens, UniProt Q14432)
Assay: Phosphodiesterase inhibition, purified PDE-III isozyme
Format: biochemical
Conditions: for PDE-IV Versus PDE-III, IC50 Ratio: selectivity of inhibition of PDE-III over PDE-IV
[1] = read-out: PDE-III IC50, PDE-III isolated from human platelets, 30°C, 30 minutes, [3H]-cAMP 0.1 µM and cAMP 0.1 µM, duplicates

Sequence of PDE-III (Q14432 whole entry): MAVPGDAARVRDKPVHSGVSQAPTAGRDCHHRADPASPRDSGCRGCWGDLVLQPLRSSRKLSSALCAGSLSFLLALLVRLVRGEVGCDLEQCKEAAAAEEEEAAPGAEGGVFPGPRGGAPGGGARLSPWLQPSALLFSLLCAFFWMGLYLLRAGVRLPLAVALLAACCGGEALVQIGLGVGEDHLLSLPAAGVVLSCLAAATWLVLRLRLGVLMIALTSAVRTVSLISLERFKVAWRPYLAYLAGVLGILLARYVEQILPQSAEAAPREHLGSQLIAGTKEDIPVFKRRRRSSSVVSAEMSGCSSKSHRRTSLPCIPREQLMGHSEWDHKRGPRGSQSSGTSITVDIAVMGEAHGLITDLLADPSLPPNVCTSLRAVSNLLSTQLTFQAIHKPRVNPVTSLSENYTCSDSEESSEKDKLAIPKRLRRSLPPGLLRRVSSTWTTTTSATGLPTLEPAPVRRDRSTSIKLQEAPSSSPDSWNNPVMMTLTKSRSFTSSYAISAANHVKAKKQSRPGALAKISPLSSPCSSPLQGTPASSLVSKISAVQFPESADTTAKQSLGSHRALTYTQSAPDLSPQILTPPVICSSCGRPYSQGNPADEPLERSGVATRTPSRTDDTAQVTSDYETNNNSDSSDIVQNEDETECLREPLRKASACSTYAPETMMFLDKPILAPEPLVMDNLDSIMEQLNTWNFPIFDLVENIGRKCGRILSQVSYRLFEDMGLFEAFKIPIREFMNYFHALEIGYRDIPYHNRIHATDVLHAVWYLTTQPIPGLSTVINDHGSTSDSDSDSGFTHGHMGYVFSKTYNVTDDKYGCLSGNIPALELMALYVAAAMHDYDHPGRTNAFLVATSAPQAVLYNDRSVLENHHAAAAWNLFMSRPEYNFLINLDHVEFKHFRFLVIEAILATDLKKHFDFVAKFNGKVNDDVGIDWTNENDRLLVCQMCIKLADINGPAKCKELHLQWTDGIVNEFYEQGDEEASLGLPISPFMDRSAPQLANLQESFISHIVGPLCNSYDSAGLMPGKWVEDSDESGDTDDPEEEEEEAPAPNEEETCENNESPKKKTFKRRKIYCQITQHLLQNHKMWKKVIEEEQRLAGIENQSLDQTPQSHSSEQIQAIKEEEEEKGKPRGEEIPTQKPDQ

| IC50 [nM] | PDE-IV Versus PDE-III, IC50 Ratio | IC50 [1] [nM] | Compound |
| --- | --- | --- | --- |
| 2.1 | 7619 |  | C[C@@H]1CC(=O)NN=C1c1ccc(NN=C(C#N)C#N)cc1 [Levosimendan, levosimendan, reference compound] |
|  | 100 | 5000 | C[C@@H]1CC(=O)NN=C1c1ccc(N)cc1 [OR-1855] |
|  | 3043 | 94 | CC(=O)Nc1ccc(C2=NNC(=O)C[C@H]2C)cc1 [OR-1896] |
